The source of these data is article PMC4810081, “Venetoclax (ABT-199) Might Act as a Perpetrator in Pharmacokinetic Drug–Drug Interactions” (Pharmaceutics, 2016).

One assay concerns LS180 cells. The assay can be described thus: Growth inhibition (proliferation) assay in LS180 cells. It counts as cell-based. The following applies: Homo sapiens, crystal violet staining. As to the method:
LS180 cells. The human colon adenocarcinoma cell line LS180 (available at ATCC, Manassas, VA, USA) is one of the standard models for investigating pregnane X receptor (PXR) and aryl hydrocarbon receptor (AhR) mediated induction and was thus used for induction experiments. Cells were cultured under standard cell culture conditions with DMEM supplemented with 10% FCS, 2 mM of glutamine, 100 U/mL of penicillin, 100 µg/mL of streptomycin sulfate, and 0.1 mM of nonessential amino acids.
Growth inhibition assays in LS180 cells were conducted to determine suitable maximum concentrations for the induction assay without profound antiproliferative effects. Proliferation was quantified by crystal violet staining of the surviving cells as described previously. Each experiment was performed at least in triplicate with n = 8 wells for each concentration (0.1–100 µM). The IC20 for proliferation inhibition by venetoclax was 8.4 ± 1.0 µM; thus, the maximum concentration for the induction assay was set to 10 µM, ensuring that about 80% of the cells will survive.

Another assay concerns T1, AhR.
T1 construct: endogenous in cells; host or cells: AZ-AHR (HepG2 with stably integrated AhR-responsive luciferase reporter; gift of Z. Dvorak)
The assay can be described thus: AhR reporter gene assay in AZ-AHR cells. In kind it is cell-based, human. The settings on record: 24 h, up to 10 µM. The method, then:
AZ-AHR cells. The human hepatoma cell line HepG2 stably transfected with a construct containing several AhR binding sites upstream of luciferase reporter gene was used to investigate whether venetoclax can activate AhR. Cells were kindly provided by Z. Dvorak (Palacky University, Olomouc, Czech Republic).
To test whether the induction of CYP1A1 or UGTs can be attributed to AhR activation by venetoclax, an AhR reporter gene assay was applied. 60,000 AZ-AhR cells were seeded into each well of 96-well plates with clear bottom and clear lid for luminometry. After incubation for 24 h, cells were treated in triplicate with venetoclax (0.1–10 µM) or vehicle control (0.2% DMSO) for a further 24 h. The assay was performed with the Steady-Glo™ Luciferase Assay System according to the manufacturer’s instructions. Drug-induced increases of AhR receptor activity were normalized to activity of non-drug treated controls, which was set to 1 (= 100%). The experiment was performed in triplicate.
(Reporter assays use an easily measured gene product as a stand-in for the process of interest.)

SMILES strings stand for the structures.

For orientation: IC20 means the concentration needed for an effect of 20%. `CC1(C)CCC(CN2CCN(c3ccc(C(=O)NS(=O)(=O)c4ccc(NCC5CCOCC5)c([N+](=O)[O-])c4)c(Oc4cnc5[nH]ccc5c4)c3)CC2)=C(c2ccc(Cl)cc2)C1` [Venetoclax] came in with a 20% effect concentration (IC20) in the assay on LS180 cells of 8.4 ± 1 µM. Also, the “luciferase activity in the AhR reporter gene assay” value in the assay with AhR was “did not increase”.
